Patent publication US9139581B2 (PORTOLA PHARMACEUTICALS, INC., priority 2008, dated 2015)

Target: T1, full length active recombinant SYK enzyme (Homo sapiens, UniProt P43405)
T1 construct: full length active recombinant SYK enzyme (Millipore, Calif.); purchased Millipore
Test: Inhibition of Syk tyrosine phosphorylation activity (LANCE TR-FRET)
Assay type: biochemical
Conditions: Table 3; 1 nM SYK, 100 μM ATP; read-out: Syk IC50 code
Method: The in vitro and in vivo human syk activities of the inventive compounds can be determined by various procedures known in the art, such as a test for their ability to inhibit the activity of human plasma syk. […] Inhibition of Syk Tyrosine Phosphorylation Activity Potency of candidate molecules for inhibiting syk tyrosine phosphorylation activity is assessed by measuring the ability of a test compound to inhibit syk-mediated tyrosine phosphorylation of a syk-specific substrate. SYK tyrosine phosphorylation activity is measured using the LANCETM Technology developed by Perkin Elmer Life and Analytical Sciences (Boston, Mass.). LANCETM refers to homogeneous time resolved fluorometry applications using techniques such as time-resolved fluorescence resonance energy transfer assay (TR-FRET) (see generally for procedures in Perkin Elmer Application Note-How to Optimize a Tyrosine Kinase Assay Using Time Resolved Fluorescence-Based LANCE Detection, wwww.perkinelmer.com/lifesciences). The assay principle involves detection of a phosphorylated substrate using energy transfer from a phosphospecific europium-labeled antibody to streptavidin-allophycocyanin as an acceptor. To test the ability of candidate molecules to inhibit SYK tyrosine phosphorylation activity, molecules are reconstituted in 30% DMSO and serially diluted 1:3 with the final dilution containing DMSO in the absence of the candidate molecule. The final DMSO concentration in the assay is 3%. Kinase assays are performed as a two part reaction. The first reaction is a kinase reaction and which comprises of a candidate molecule, full length active recombinant SYK enzyme (Millipore, Calif.) and biotin-labeled SYK-specific substrate biotin-[…]-OH. The second reaction involves termination of the kinase reaction and the simultaneous addition of the detection reagents-europium-labeled anti-phosphotyrosine reagent (Eu-W1024-PY100, Perkin Elmer, Boston, Mass.) and Streptavidin-Allophycocyanin detection reagent (SA-APC, Prozyme, Calif.). The kinase reaction is performed in a black U-bottom 96-well microtitre plate. […] The reaction is allowed to proceed for 1 hour at room temperature. […] The detection reagents are added to the reaction mixture at the following dilutions-1:500 for Eu-W1024-PY100 and 1:250 for SA-APC. The kinase reaction is terminated by the addition of 50 μL quench buffer containing the detection reagents. The detection is allowed to proceed for 1 hr at room temperature. Detection of the phosphorlated substrate in the absence and presence of inhibitors is measured in the TR-FRET instrument, Analyst HT ([…], Sunnyvale, Calif.) and the condition for measurements are set up using CriterionHost Release 2.0 ([…], Sunnyvale, Calif.). […] IC50s were derived by non-linear regression analysis.

SMILES	IC50 [nM]
CC(=O)N1CCN(c2ccc(Nc3ncc(F)c(N4CCC(CO)CC4)n3)cc2)CC1 [Example 38, 1-(4-(4-(5-fluoro-4-(4-(hydroxymethyl)piperidin-1-yl)pyrimidin-2-ylamino)phenyl)piperazin-1-yl)ethanone]	> 1000
O=C1CCc2cc(Nc3ncc(F)c(N4CCC(CO)CC4)n3)ccc2N1 [Example 39, 6-(5-fluoro-4-(4-(hydroxymethyl)piperidin-1-yl)pyrimidin-2-ylamino)-3,4-dihydroquinolin-2(1H)-one]	100 to 1000
CCCCOC(C)c1c[nH]c2nc(Nc3ccc4cn[nH]c4c3)nc(NC3CC3)c12 (stereo not shown) [Example 41, 5-(1-butoxyethyl)-N4-cyclopropyl-N2-(1H-indazol-6-yl)-7H-pyrrolo[2,3-d]pyrimidine-2,4-diamine]	100 to 1000
CC(=O)c1c[nH]c2nc(Nc3ccc4cn[nH]c4c3)nc(NC3CC3)c12 [Example 42, 1-(2-(1H-indazol-6-ylamino)-4-(cyclopropylamino)-7H-pyrrolo[2,3-d]pyrimidin-5-yl)ethanone]	100 to 1000
c1cc(-c2c[nH]c3nc(Nc4ccc5cn[nH]c5c4)nc(NC4CC4)c23)ccn1 [Example 43, N4-cyclopropyl-N2-(1H-indazol-6-yl)-5-(pyridin-4-yl)-7H-pyrrolo[2,3-d]pyrimidine-2,4-diamine]	100 to 1000
CC(=O)N1CCN(c2ccc(Nc3nc(NCC4CCNCC4)c4c(-c5ccncc5)c[nH]c4n3)cc2)CC1 [Example 44, 1-(4-(4-(4-(piperidin-4-ylmethylamino)-5-(pyridin-4-yl)-7H-pyrrolo[2,3-d]pyrimidin-2-ylamino)phenyl)piperazin-1-yl)ethanone]	> 1000
CC(=O)N1CCN(c2ccc(Nc3nc(NCC4CCNCC4)c4c(C#N)c[nH]c4n3)cc2)CC1 [Example 45, 2-(4-(4-acetylpiperazin-1-yl)phenylamino)-4-(piperidin-4-ylmethylamino)-7H-pyrrolo[2,3-d]pyrimidine-5-carbonitrile]	100 to 1000
O=C1CNc2nc(Nc3ccc4cn[nH]c4c3)nc(NC3CCC3)c21 [Example 51, 2-(1H-indazol-6-ylamino)-4-(cyclobutylamino)-6,7-dihydropyrrolo[2,3-d]pyrimidin-5-one]	100 to 1000
CCCCOC(=O)CN(C)S(=O)(=O)c1ccc(Nc2nc(NC3CCC3)c3cc[nH]c3n2)cc1 [Example 53, butyl 2-(4-(4-(cyclobutylamino)-7H-pyrrolo[2,3-d]pyrimidin-2-ylamino)-N-methylphenylsulfonamido)acetate]	100 to 1000
CC(C)(C)OC(=O)N1CCC(Nc2nc(Nc3ccc4cn[nH]c4c3)nc3[nH]ccc23)CC1 [Example 57, tert-butyl 4-(2-(1H-indazol-6-ylamino)-7H-pyrrolo[2,3-d]pyrimidin-4-ylamino)piperidine-1-carboxylate]	> 1000
c1cc2c(NC3CCNCC3)nc(Nc3ccc4cn[nH]c4c3)nc2[nH]1 [Example 58, N2-(1H-indazol-6-yl)-N4-(piperidin-4-yl)-7H-pyrrolo[2,3-d]pyrimidine-2,4-diamine]	100 to 1000
Cc1cc2c(NC3CCC3)nc(Nc3ccc4cn[nH]c4c3)nc2[nH]1 [Example 59, N4-cyclobutyl-N2-(1H-indazol-6-yl)-6-methyl-7H-pyrrolo[2,3-d]pyrimidine-2,4-diamine]	> 1000
CC(C)(CN)CNc1nc(Nc2ccc3cn[nH]c3c2)nc2[nH]ccc12 [Example 60, N4-(3-amino-2,2-dimethylpropyl)-N2-(1H-indazol-6-yl)-7H-pyrrolo[2,3-d]pyrimidine-2,4-diamine]	> 1000
c1cc2c(NCCCN3CCOCC3)nc(Nc3ccc4cn[nH]c4c3)nc2[nH]1 [Example 61, N2-(1H-indazol-6-yl)-N4-(3-morpholinopropyl)-7H-pyrrolo[2,3-d]pyrimidine-2,4-diamine]	> 1000
CC(=O)N(C)c1ccc(Nc2nc(NC3CCCCC3N)c3cc[nH]c3n2)cc1 (stereo not drawn) [Example 63, N-(4-(4-(2-aminocyclohexylamino)-7H-pyrrolo[2,3-d-]pyrimidin-2-ylamino)phenyl)-N-methylacetamide]	> 1000
CC(=O)N(C)c1ccc(Nc2nc(NCCN)c3cc[nH]c3n2)cc1 [Example 64, N-(4-(4-(2-aminoethylamino)-7H-pyrrolo[2,3-d]pyrimidin-2-ylamino)phenyl)-N-methylacetamide]	100 to 1000
CC(=O)N(C)c1ccc(Nc2nc(NCCCCCN)c3cc[nH]c3n2)cc1 [Example 65, N-(4-(4-(5-aminopentylamino)-7H-pyrrolo[2,3-d-]pyrimidin-2-ylamino)phenyl)-N-methylacetamide]	100 to 1000
CC(=O)N(C)c1ccc(Nc2nc(NCCCCCN)c3c(Br)c[nH]c3n2)cc1 [Example 67, N-(4-(4-(5-aminopentylamino)-5-bromo-7H-pyrrolo[2,3-d]pyrimidin-2-ylamino)phenyl)-N-methylacetamide]	> 1000
CC(=O)N(C)c1ccc(Nc2nc(Nc3cccc(S(N)(=O)=O)c3)c3cc[nH]c3n2)cc1 [Example 68, N-(4-(4-(3-aminosulfonyl-phenylamino)-7H-pyrrolo[2,3-d]pyrimidin-2-ylamino)phenyl)-N-methylacetamide]	100 to 1000
CCOC(=O)CN1C(=O)CCc2cc(Nc3nc(NC4CCC4)c4cc[nH]c4n3)ccc21 [Example 69, Ethyl 2-(6-(4-(cyclobutyamino)-7H-pyrrolo-[2,3-d]pyrimidine-2-ylamino)-2-oxo-3,4-dihydroquinolin-1(2H)-yl)acetate]	10 to 100

More lines, now with the values ahead:

IC50 [nM]	SMILES
10 to 100	N#Cc1c[nH]c2nc(Nc3ccc4cn[nH]c4c3)nc(NC3CC3)c12 [Example 40, 2-(1H-indazol-6-ylamino)-4-(cyclopropylamino)-7H-pyrrolo[2,3-d]pyrimidine-5-carbonitrile]
10 to 100	CC(=O)N(C)c1ccc(Nc2nc(NC3CC3)c3c(-c4ccncc4)c[nH]c3n2)cc1 [Example 47, N-(4-(4-(cyclopropylamino)-5-(pyridin-4-yl)-7H-pyrrolo[2,3-d]pyrimidin-2-ylamino)phenyl)-N-methylacetamide]
10 to 100	O=C1CCc2cc(Nc3nc(NC4CC4)c4c(-c5ccncc5)c[nH]c4n3)ccc2N1 [Example 48, 6-(4-(cyclopropylamino)-5-(pyridin-4-yl)-7H-pyrrolo[2,3-d]pyrimidin-2-ylamino)-3,4-dihydroquinolin-2(1H)-one]
1 to 10	Brc1c[nH]c2nc(Nc3ccc4cn[nH]c4c3)nc(NC3CCC3)c12 [Example 49, 5-bromo-N4-cyclobutyl-N2-(1H-indazol-6-yl)-7H-pyrrolo[2,3-d]pyrimidine-2,4-diamine]
1 to 10	Clc1c[nH]c2nc(Nc3ccc4cn[nH]c4c3)nc(NC3CCC3)c12 [Example 50, 5-chloro-N4-cyclobutyl-N2-(1H-indazol-6-yl)-7H-pyrrolo[2,3-d]pyrimidine-2,4-diamine]
10 to 100	O=S(=O)(c1ccc(Nc2nc(NC3CCC3)c3cc[nH]c3n2)cc1)N1CCC(O)CC1 [Example 52, 1-(4-(4-(cyclobutylamino)-7H-pyrrolo[2,3-d]pyrimidin-2-ylamino)phenylsulfonyl)piperidin-4-ol]
10 to 100	NC(=O)CNS(=O)(=O)c1ccc(Nc2nc(NC3CCC3)c3cc[nH]c3n2)cc1 [Example 54, 2-(4-(4-(cyclobutylamino)-7H-pyrrolo[2,3-d]pyrimidin-2-ylamino)phenylsulfonamido)acetamide]
10 to 100	CN(CC(=O)O)S(=O)(=O)c1ccc(Nc2nc(NC3CCC3)c3cc[nH]c3n2)cc1 [Example 55, 2-(4-(4-(cyclobutylamino)-7H-pyrrolo[2,3-d]pyrimidin-2-ylamino)-N-methylphenylsulfonamido)acetic acid]
10 to 100	OC1CCN(c2ccc(Nc3nc(NC4CCC4)c4cc[nH]c4n3)cc2)CC1 [Example 56, 1-(4-(4-(cyclobutylamino)-7H-pyrrolo[2,3-d]pyrimidin-2-ylamino)phenyl)piperidin-4-ol]
10 to 100	CC(=O)N(C)c1ccc(Nc2nc(NCCCCN)c3cc[nH]c3n2)cc1 [Example 62, N-(4-(4-(4-aminobutylamino)-7H-pyrrolo[2,3-d]pyrimidin-2-ylamino)phenyl)-N-methylacetamide]
10 to 100	CC(=O)N1CCN(c2ccc(Nc3nc(NC4CCC(N)CC4)c4cc[nH]c4n3)cc2)CC1 (stereo not shown) [Example 66, 1-(4-(4-(4-(4-aminocyclohexylamino)-7H-pyrrolo[2,3-d]pyrimidin-2-ylamino)phenyl)piperazin-1-yl)ethanone]
